Results as given in the NIST ThermoML archive (doi:10.1021/je030136n).
Numbers after ± are expanded uncertainties.

Assay: xn = mol fraction of the nth substance listed
Conditions: Liquid, Pulse-echo method

CCCCCCC [heptane] + CCCO
Conditions | speed of sound [m/s]
308.07 K, 30400 kPa, x2 = 0 | 1290.3 ± 1.2
308.07 K, 45590 kPa, x2 = 0 | 1368.7 ± 1.2
308.08 K, 100 kPa, x2 = 0 | 1087.4 ± 1.1
308.08 K, 15200 kPa, x2 = 0 | 1200.4 ± 1.1
308.09 K, 121580 kPa, x2 = 0.7016 | 1655.6 ± 1.3
308.09 K, 121580 kPa, x2 = 0.7986 | 1657.2 ± 1.3
308.1 K, 121580 kPa, x2 = 0.3008 | 1657.5 ± 1.3
308.1 K, 121580 kPa, x2 = 0.4992 | 1655.4 ± 1.3
308.11 K, 30400 kPa, x2 = 0.6027 | 1293.7 ± 1.1
308.11 K, 91190 kPa, x2 = 0 | 1562.4 ± 1.3
308.11 K, 111450 kPa, x2 = 0.4992 | 1622.6 ± 1.3
308.11 K, 111450 kPa, x2 = 0.7986 | 1625.7 ± 1.2
308.12 K, 100 kPa, x2 = 0.3008 | 1086.3 ± 1.1
308.12 K, 15200 kPa, x2 = 0.1008 | 1194.9 ± 1.1
308.12 K, 60790 kPa, x2 = 0 | 1439 ± 1.2
308.12 K, 75990 kPa, x2 = 0 | 1503.2 ± 1.3
308.12 K, 91190 kPa, x2 = 0.7016 | 1555.2 ± 1.2
308.13 K, 30400 kPa, x2 = 0.7986 | 1308.5 ± 1.1
308.14 K, 45590 kPa, x2 = 0.6027 | 1368.1 ± 1.1
308.14 K, 60790 kPa, x2 = 0.7986 | 1444.4 ± 1.1
308.14 K, 91190 kPa, x2 = 0.3008 | 1552.6 ± 1.2
308.14 K, 101320 kPa, x2 = 0.7986 | 1592.7 ± 1.2
308.14 K, 111450 kPa, x2 = 0.3008 | 1624.1 ± 1.3
308.15 K, 100 kPa, x2 = 0.7986 | 1128.4 ± 1
308.15 K, 45590 kPa, x2 = 0.7986 | 1379.8 ± 1.1
308.15 K, 60790 kPa, x2 = 0.3008 | 1431.2 ± 1.2
308.15 K, 101320 kPa, x2 = 0.4992 | 1588.3 ± 1.2
308.16 K, 45590 kPa, x2 = 0.3008 | 1362 ± 1.1
308.16 K, 101320 kPa, x2 = 0.3008 | 1589.1 ± 1.3
308.16 K, 101320 kPa, x2 = 0.7016 | 1590 ± 1.2
308.16 K, 111450 kPa, x2 = 0.6027 | 1622.3 ± 1.2
308.17 K, 75990 kPa, x2 = 0.3008 | 1494.3 ± 1.2
308.17 K, 75990 kPa, x2 = 0.6027 | 1496.3 ± 1.2
308.17 K, 111450 kPa, x2 = 0.7016 | 1623.4 ± 1.2
308.17 K, 121580 kPa, x2 = 0 | 1668.6 ± 1.4
308.18 K, 60790 kPa, x2 = 0.6027 | 1435 ± 1.1
308.18 K, 75990 kPa, x2 = 0.4992 | 1495.2 ± 1.2
308.18 K, 91190 kPa, x2 = 0.4992 | 1552.3 ± 1.2
308.18 K, 91190 kPa, x2 = 0.6027 | 1552.8 ± 1.2
308.18 K, 121580 kPa, x2 = 0.6027 | 1654.7 ± 1.3
308.19 K, 30400 kPa, x2 = 0.3008 | 1284.8 ± 1.1
308.19 K, 60790 kPa, x2 = 0.4992 | 1433 ± 1.2
308.19 K, 75990 kPa, x2 = 0.7986 | 1503.4 ± 1.2
308.2 K, 100 kPa, x2 = 0.4992 | 1095.2 ± 1
308.2 K, 30400 kPa, x2 = 0.4992 | 1289.6 ± 1.1
308.2 K, 45590 kPa, x2 = 0.4992 | 1365.2 ± 1.1
308.2 K, 45590 kPa, x2 = 0.7016 | 1373.1 ± 1.1
308.2 K, 75990 kPa, x2 = 0.1008 | 1497.7 ± 1.2
308.2 K, 91190 kPa, x2 = 0.7986 | 1558.1 ± 1.2
308.2 K, 101320 kPa, x2 = 0.1008 | 1593.7 ± 1.3
308.21 K, 100 kPa, x2 = 0.6027 | 1103.5 ± 1
308.21 K, 100 kPa, x2 = 0.7016 | 1114.7 ± 1
308.21 K, 60790 kPa, x2 = 0.1008 | 1433.6 ± 1.2
308.21 K, 60790 kPa, x2 = 0.7016 | 1438.8 ± 1.1
308.21 K, 111450 kPa, x2 = 0 | 1634.6 ± 1.3
308.22 K, 100 kPa, x2 = 0.1008 | 1082.2 ± 1.1
308.22 K, 30400 kPa, x2 = 0.1008 | 1284.6 ± 1.1
308.22 K, 30400 kPa, x2 = 0.7016 | 1300 ± 1.1
308.22 K, 45590 kPa, x2 = 0.1008 | 1363.2 ± 1.2
308.22 K, 91190 kPa, x2 = 0.1008 | 1556.7 ± 1.3
308.22 K, 111450 kPa, x2 = 0.1008 | 1628.9 ± 1.3
308.23 K, 75990 kPa, x2 = 0.7016 | 1499.1 ± 1.2
308.23 K, 121580 kPa, x2 = 0.1008 | 1662.3 ± 1.3
308.24 K, 101320 kPa, x2 = 0 | 1599.1 ± 1.3
308.24 K, 101320 kPa, x2 = 0.6027 | 1588.1 ± 1.2
313.08 K, 100 kPa, x2 = 0.7986 | 1109.7 ± 1
313.08 K, 75990 kPa, x2 = 0.7986 | 1490.8 ± 1.2
313.09 K, 30400 kPa, x2 = 0.4992 | 1273.3 ± 1.1
313.09 K, 60790 kPa, x2 = 0.4992 | 1418.7 ± 1.2
313.1 K, 100 kPa, x2 = 0 | 1066.1 ± 1.1
313.1 K, 100 kPa, x2 = 0.6027 | 1083.9 ± 1
313.1 K, 15200 kPa, x2 = 0 | 1182 ± 1.1
313.1 K, 60790 kPa, x2 = 0.7986 | 1431 ± 1.1
313.1 K, 75990 kPa, x2 = 0 | 1489.2 ± 1.2
313.1 K, 121580 kPa, x2 = 0.7986 | 1645.9 ± 1.3
313.11 K, 45590 kPa, x2 = 0.7986 | 1365.7 ± 1.1
313.11 K, 91190 kPa, x2 = 0.7016 | 1542.7 ± 1.2
313.11 K, 91190 kPa, x2 = 0.7986 | 1546.1 ± 1.2
313.11 K, 101320 kPa, x2 = 0.7986 | 1580.9 ± 1.2
313.12 K, 30400 kPa, x2 = 0 | 1273.3 ± 1.1
313.12 K, 30400 kPa, x2 = 0.6027 | 1277.6 ± 1.1
313.12 K, 45590 kPa, x2 = 0 | 1353 ± 1.2
313.12 K, 45590 kPa, x2 = 0.3008 | 1346.5 ± 1.1
313.12 K, 60790 kPa, x2 = 0 | 1424.3 ± 1.2
313.12 K, 60790 kPa, x2 = 0.1008 | 1419 ± 1.2
313.12 K, 75990 kPa, x2 = 0.6027 | 1482.9 ± 1.2
313.12 K, 91190 kPa, x2 = 0.6027 | 1540 ± 1.2
313.12 K, 101320 kPa, x2 = 0.6027 | 1575.9 ± 1.2
313.12 K, 111450 kPa, x2 = 0.7986 | 1614.1 ± 1.2
313.13 K, 45590 kPa, x2 = 0.1008 | 1347.6 ± 1.2
313.13 K, 45590 kPa, x2 = 0.6027 | 1353 ± 1.1
313.13 K, 91190 kPa, x2 = 0 | 1549 ± 1.3
313.13 K, 101320 kPa, x2 = 0.7016 | 1578 ± 1.2
313.13 K, 121580 kPa, x2 = 0 | 1656.4 ± 1.4
313.14 K, 15200 kPa, x2 = 0.1008 | 1176.1 ± 1.1
313.14 K, 60790 kPa, x2 = 0.6027 | 1420.9 ± 1.1
313.14 K, 75990 kPa, x2 = 0.1008 | 1483.7 ± 1.2
